Broadly, the T/C is the ratio of treated to control.

Structures are written as SMILES. Calls of active or inactive are those of the source. The rule behind the calls is not given here. Some results are limits rather than exact numbers.

This is an account of results in ChEMBL document CHEMBL3244299, “Allylic esters as potential antitumor agents. Derivatives and analogues of 2,3-bis(hydroxymethyl)-7-oxabicyclo[2.2.1]hept-2-ene” (J Med Chem, 1979).

The subject of one data set is P388. Kind of data set: Antitumor activity against mouse P388 cells allografted in mouse assessed as tumor growth inhibition at 25 mg/kg relative to control. The format is functional.
In data set [1] the test system is L1210. Kind of data set: Cytotoxicity against mouse L1210 cells assessed as growth inhibition after 40 hrs. The format is functional.
Data set [2] deals with L1210. Kind of data set: Antitumor activity against mouse L1210 cells allografted in mouse. The format is functional, cell-based.
For data set [3], the system named is L1210. Briefly: Cytotoxicity against mouse L1210 cells assessed as growth inhibition at 10^-5 M after 40 hrs relative to control. Particulars: L1210, 40 h, read-out: GI. The format is functional.
Data set [4] concerns L1210. Briefly: Cytotoxicity against mouse L1210 cells assessed as growth inhibition at 10^-4 M after 40 hrs relative to control. The class given is functional. The following applies: L1210, 40 h, read-out: GI.
Data set [5] deals with L1210. Briefly: Cytotoxicity against mouse L1210 cells assessed as growth inhibition at 10^-6 M after 40 hrs relative to control. The format is functional. Particulars: L1210, 40 h, read-out: GI.
The species named for the next data set is Mus musculus. Kind of data set: Toxicity in mouse allografted with mouse P388 cells. The format is organism-based.

As for `CCCCNC(=O)OCC1=C(COC(=O)NCCCC)[C@@H]2O[C@H]1C(C(=O)OC)=C2C(=O)OC`, the T/C in the data set on P388 is listed as 123%.
With `COC(=O)C1=C(C(=O)OC)[C@H]2O[C@@H]1C(COC(C)=O)=C2COC(C)=O`, the IC50 with L1210 [1] (Mus musculus, L1210, 40 h, read-out: ID50 (the source's name)) is < 1 µM. For the same compound, the result in the data set with L1210 [2] was inactive. The inhibition of growth at 10 µM in the data set with L1210 [3] was found to be 93%. In addition, the inhibition of growth at 100 µM in the data set with L1210 [4] came to 93%. The inhibition of growth at 1 µM in the data set on L1210 [5] was 93%.
Regarding `CCOC(=O)N1[C@@H]2O[C@@H](C(COC(C)=O)=C2COC(C)=O)N1C(=O)OCC`, the ID50 with L1210 [1] is given as 3 ×10⁻⁵ M. The outcome in the data set with L1210 [2] was inactive. For the same compound, in the data set on L1210 [3], the inhibition of growth at 10 µM is 41%. In addition, the inhibition of growth at 100 µM in the data set with L1210 [4] was 78%. The inhibition of growth at 1 µM in the data set with L1210 [5] amounted to 13%.
Regarding `CC(=O)OCC1=C(COC(C)=O)[C@@H]2O[C@H]1[C@H](O)[C@@H]2O`, the ID50 in the data set on L1210 [1] is reported as >1 ×10⁻⁴ M. Besides, in the data set with L1210 [2], the result was inactive. Also, in the data set on L1210 [3], the inhibition of growth at 10 µM was 3%. Also, the inhibition of growth at 100 µM with L1210 [4] was 41%.
For `CNC(=O)OCC1=C(COC(=O)NC)[C@@H]2O[C@H]1C(C(=O)OC)=C2C(=O)OC`, the Activity entry in the data set filed under Mus musculus is listed as “Toxic”.
As for `CC(=O)OCC1=C(COC(C)=O)[C@@H]2O[C@H]1[C@H](OC(C)=O)[C@@H]2OC(C)=O`, in the data set on L1210 [1], the ID50 was >1 ×10⁻⁴ M. Also, the result in the data set on L1210 [2] was inactive. The inhibition of growth at 10 µM in the data set with L1210 [3] was 19%. Further, in the data set with L1210 [4], the inhibition of growth at 100 µM stood at 34%. Moreover, the inhibition of growth at 1 µM with L1210 [5] worked out at 1%.
